In publication PMC11464777, “Approved drugs successfully repurposed against Leishmania based on machine learning predictions” (Frontiers in Cellular and Infection Microbiology, 2024):
Values after ≈ are worked out from the molar mass of the structure shown. Read-outs that look alike come from different tables or passages of the source.

Experiments:
[1] = system: Leishmania (Viannia) braziliensis; design: method as in Cazorla et al., 2004; conditions: hamsters infected with Leishmania (Viannia) braziliensis, versus Glucantime; ref Cazorla et al., 2004; cited from earlier work
[2] = system: L. infantum LV50 intracellular amastigotes; experiment: Anti-amastigote assay in THP-1-derived macrophages, L. infantum LV50; type: cell-based, Leishmania infantum; conditions: for IC50: Leishmania infantum, Macrophage, LV50, intramacrophage, 72 h
Protocol: (§1) THP-1-derived macrophages (5 × 10^4/well) were seeded in each 8-well Labtek slides (Thermo Scientific). Adherent macrophages were obtained as described above, then infected with stationary phase promastigotes of each strain at a ratio 10:1 (10 parasites/macrophage) in RPMI medium containing penicillin (100 U/mL) and streptomycin (100 μg/mL) with 10% fetal bovine serum (Gibco, Brazil) at 37°C in 5% CO2 for 24 h. […] Non-infected control cells were incubated in a supplemented RPMI medium containing 1% DMSO. After 72h of incubation, cells were fixed and stained using May-Grunwald-Giemsa staining with RAL 555 Kit (RAL DIAGNOSTICS, France), following the manufacturer’s instructions. The percentage of infected cells and the total number of internalized parasites per 100 macrophages were determined under immersion oil (magnification of 1000X) using light microscopy. The percentage of amastigotes viability was expressed as the percentage of total number of internalized parasites within treated cells relative to the total number of internalized parasites within control cells treated with 1% DMSO, and calculated as follows:
(§2) Relative amastigote viability (%) = [(number of amastigotes/100 treated cells)/(number of amastigotes/100 treated cells with1% DMSO)] * 100
(§3) The relative percentage of amastigote viability was evaluated to calculate half inhibitory concentrations (IC50). The mean IC50 values were determined by plotting the curves of the logarithm of compound concentrations versus the relative amastigote viability of three independent experiments performed in two technical replicates for each compound fitted into a nonlinear regression model, using GraphPad Prism version 8.0.1. Selectivity Index (SI) values were calculated as the ratio between cytotoxicity and activity against amastigotes and determined for each compound as follows: SI= CC50/IC50.

[3] = system: L. infantum (LV50 and Drep-14) and L. major (Empa-12) promastigotes; experiment: MTT promastigote viability assay, stated across the three strains; type: cell-based, Leishmania infantum, Leishmania major; conditions: 72 h; for Effect on promastigote viability: three strains, at the tested concentrations
From the text: (§4) Three Tunisian laboratory strains already described ([Oualha et al., 2019]), originally isolated from distinct clinical manifestations were used in this study: (i) L. infantum LV50 MHOM/TN/94/LV50) strain originating from a bone marrow of a visceral leishmaniasis patient, (ii) L. infantum Drep-14 (MHOM/TN/96/Drep-14) strain isolated from a lesion of a sporadic cutaneous leishmaniasis patient and (iii) L. major Empa-12 (MHOM/TN/2012/Empa-12) strain isolated from a zoonotic cutaneous leishmaniasis patient. Stocks of these parasites obtained after passage through BALB/c mice were used as previously described ([Oualha et al., 2019]). Thawed cryopreserved parasites were cultured at 22°C in RPMI-1640/Glutamax medium (Gibco BRL, Germany) containing penicillin (100 U/mL) and streptomycin (100 μg/mL) supplemented with 10% heat-inactivated Fetal Bovine Serum (FBS) (Gibco BRL, Germany).
(§5) The effect of the selected compounds on the viability of Leishmania promastigotes was evaluated by a colorimetric MTT (3-(4,5-dimethylthiazol-2yl)-2,5-diphenyl tetrazolium bromide) assay. It consists in the reduction of tetrazolium salt to a […] crystal (blue formazan) by the succinate dehydrogenase activity of mitochondria in living cells, which can be quantified by spectrophotometry. Briefly, 90 μL of promastigotes (5 × 10^5 parasites/well) harvested from the stationary growth phase of each strain were added to a 96-well culture plate and incubated with 10 μL of a range of serial dilutions of the selected compounds in technical replicates (final concentration of 1% DMSO per well) ([Ioset et al., 2009]; [Harigua-Souiai et al., 2018]). […] After 72h of incubation at 22°C, 25 μl of MTT solution (5 mg/mL) was added to each well and incubated at 22°C for 4h. Then, 150 μl of DMSO was added to each well to dissolve the blue formazan and the optical density (OD) was measured at 570 nm with a microplate reader ([…], Labsystems). Promastigotes incubated in complete medium containing 1% DMSO were used as negative control. The standard anti-Leishmania drug, Amphotericin B was used as a positive control. All experiments were performed in two technical replicates and repeated three times in independent experiments. The mean percentage of promastigotes viability was calculated from the Optical Density at 570 nm as follows:
(§6) Promastigote viability (%)= [(ODcompound− ODblank)/(ODnegative control −ODblank)]*100
(§7) Results were expressed as the mean value of the percentage of promastigotes viability ± standard deviation (SD).

[4] = system: L. infantum Drep-14 promastigotes; experiment: microbe, parasite or virus in culture; type: cell-based; conditions: Leishmania infantum, 72 h
From the text: as §4, §5, §6, §7

[5] = system: L. infantum Drep-14 intracellular amastigotes; experiment: Anti-amastigote assay in THP-1-derived macrophages, L. infantum Drep-14; type: cell-based, Leishmania infantum; conditions: Leishmania infantum, Macrophage, Drep-14, intramacrophage, 72 h
Protocol: as §1, §2, §3

[6] = system: L. major Empa-12 intracellular amastigotes; experiment: Anti-amastigote assay in THP-1-derived macrophages, L. major Empa-12; type: cell-based, Leishmania major; conditions: for IC50: Leishmania major, Macrophage, Empa-12, intramacrophage, 72 h
Protocol: as §1, §2, §3

[7] = system: L. major and L. infantum amastigotes; experiment: Anti-amastigote assay, stated across the three strains; type: cell-based, Leishmania infantum, Leishmania major; conditions: CC50/IC50 amastigotes
Protocol: as §1, §2, §3

[8] = system: THP-1-derived macrophages; experiment: Cytotoxicity assay towards THP-1-derived macrophages (MTT); type: cell-based, human
Protocol: (§8) Louis, MO, USA). The PMA-treated THP-1 cells were maintained in this condition for 24 h, followed by a 24 h of rest period after the removal of PMA. […] The cytotoxicity towards THP-1-derived macrophages was assessed after 24, 48 and 72 hours of incubation by MTT assay as described above. […] The percentage of viable cells was calculated from the Optical Density at 570 nm as follows: […]

[9] = as above; type: cell-based, human; conditions: human, THP-1-derived macrophages (PMA-differentiated), 72 h of treatment, uninfected cells, MTT
Protocol: as §8

[10] = system: L. infantum LV50 promastigotes; experiment: MTT-based promastigote viability assay, L. infantum LV50; type: cell-based; conditions: Leishmania infantum, LV50, 72 h, MTT
From the text: as §4, §5, §6, §7

[11] = system: L. major Empa-12 promastigotes; experiment: MTT-based promastigote viability assay, L. major Empa-12; type: cell-based; conditions: Leishmania major, Empa-12, 72 h, MTT
From the text: as §4, §5, §6, §7

L. infantum [12] = system: L. infantum; design: method as in Gómez-Ochoa et al., 2009; conditions: 98 dogs naturally infected with L. infantum, 12-months follow-up; ref Gómez-Ochoa et al., 2009; cited from earlier work
L. infantum [13] = system: L. infantum; design: method as in Cavalera et al., 2021; conditions: dogs with leishmaniasis and chronic kidney disease; ref Cavalera et al., 2021; cited from earlier work
[14] = system: multiple strains of L. donovani; design: method as in Pandharkar et al., 2014; conditions: ref Pandharkar et al., 2014, read-out: IC50 in vitro; cited from earlier work
[15] = read-out: Amastigotes IC50 (in brackets) (converted)
[16] = read-out: THP-1-derived macrophages CC50
[17] = read-out: THP-1-derived macrophages CC50 (in brackets) (converted)
[18] = read-out: Promastigotes IC50 (in brackets) (converted)

**Q.** For `CCCCOc1cc(C(=O)NCCN(CC)CC)c2ccccc2n1` [Dibucaine], which “Efficacy of intralesional treatment in hamsters” value [1] is on record?
**A.** comparable to the standard dosages of Glucantime

**Q.** What about the “Selectivity Index (SI)” value ([2]; CC50 THP-1 / IC50 amastigotes LV50, 72 h) of the same molecule?
**A.** 31.97

**Q.** And the IC50 ([2]; read-out: Amastigotes IC50)?
**A.** 0.71 ± 0.09 µg/mL

**Q.** What about the IC50 [2, 15] of the same molecule?
**A.** 1870 nM

**Q.** And the IC50 ([3]; Leishmania infantum, LV50, Drep-14, Empa-12, MTT, read-out: Promastigotes IC50, span over the three strains)?
**A.** 0.58 to 1.05 µg/mL (≈ 1.69 to 3.06 µM)

**Q.** And the “Effect on promastigote viability” value [3]?
**A.** dose-dependent decrease of parasite viability

**Q.** And the IC50 ([4]; read-out: Promastigotes IC50)?
**A.** 1.05 ± 0.06 µg/mL

**Q.** And the IC50 ([4]; read-out: Promastigotes IC50 (in brackets))?
**A.** 2760 nM

**Q.** What about the IC50 ([5]; read-out: Amastigotes IC50) of the same molecule?
**A.** 0.9 ± 0.03 µg/mL

**Q.** What about the IC50 [5, 15] of the same molecule?
**A.** 2370 nM

**Q.** What about the “Selectivity Index (SI)” value ([6]; CC50 THP-1 / IC50 amastigotes Empa-12, 72 h) of the same molecule?
**A.** 27.35

**Q.** What about the IC50 ([6]; read-out: Amastigotes IC50) of the same molecule?
**A.** 0.83 ± 0.05 µg/mL

**Q.** And the IC50 [6, 15]?
**A.** 2190 nM

**Q.** And the “Selectivity index (SI), span over strains” value [7]?
**A.** > 25

**Q.** What about the “Concentration at which cytotoxic effects start” value (from here on “Concentration”) ([8]; 24 h of incubation) of the same molecule?
**A.** 30000 ng/mL

**Q.** What about the “Concentration” value ([8]; 48 h of incubation) of the same molecule?
**A.** 30000 ng/mL

**Q.** What about the “Concentration” value ([8]; 72 h of incubation) of the same molecule?
**A.** 15000 ng/mL

**Q.** What about the CC50 at 72 h [9, 16] of the same molecule?
**A.** 22.7 ± 1.08 µg/mL

**Q.** And the CC50 at 72 h [9, 17]?
**A.** 59700 nM

**Q.** What about the IC50 ([10]; read-out: Promastigotes IC50) of the same molecule?
**A.** 0.58 ± 0.02 µg/mL

**Q.** And the IC50 [10, 18]?
**A.** 1530 nM

**Q.** What about the IC50 ([11]; read-out: Promastigotes IC50) of the same molecule?
**A.** 1.04 ± 0.09 µg/mL

**Q.** What about the IC50 [11, 18] of the same molecule?
**A.** 2740 nM

**Q.** What does the source list for `O=c1[nH]c2ccccc2n1CCCN1CCC(n2c(=O)[nH]c3cc(Cl)ccc32)CC1` [Domperidone]?
**A.** Clinical outcome in dogs (L. infantum [12]): effectively reduced clinical symptoms and antibody levels; Effect on promastigote viability [3]: dose-dependent decrease of parasite viability; Serum markers in dogs (L. infantum [13]): improve serum creatinine and to reduce anti-L. infantum antibody titers, globulins, gamma globulins, and C-reactive protein (CRP); Concentration at which cytotoxic effects start ([8]; 24 h of incubation): 25000 ng/mL; Concentration at which cytotoxic effects start ([8]; 48 h of incubation): 25000 ng/mL; Concentration at which cytotoxic effects start ([8]; 72 h of incubation): 25000 ng/mL; CC50 at 72 h [9, 16]: 26.5 ± 2.6 µg/mL; CC50 at 72 h [9, 17]: 62400 nM

**Q.** For `OC(Cn1cncn1)(Cn1cncn1)c1ccc(F)cc1F` [Fluconazole], which IC50 [14] is on record?
**A.** 140000 ± 50000 nM
